Experimental data published in PubChem BioAssay (NCI).
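1) Cells in 96-well plates. 2) Compound, 48 h, 5 concentrations. 3) Linear interpolation between surrounding doses. 4) Unreached endpoint = highest concentration. GI50 is the concentration that inhibits growth by half. TGI marks complete inhibition of growth.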

What was measured:
Test in all cases: NCI tumour cell line growth inhibition, 48 h
[1] = tested on: 786-0 renal
[2] = tested on: A498 renal
[3] = tested on: A549 NSCLC
[4] = tested on: ACHN renal
[5] = tested on: CAKI-1 renal
[6] = tested on: CCRF-CEM leukemia
[7] = tested on: DU-145 prostate
[8] = tested on: EKVX NSCLC
[9] = tested on: HCC-2998 colon
[10] = tested on: HCT-116 colon
[11] = tested on: HCT-15 colon
[12] = tested on: HL-60(TB) leukemia
[13] = tested on: HOP-62 NSCLC
[14] = tested on: HOP-92 NSCLC
[15] = tested on: HS 578T breast
[16] = tested on: HT29 colon
[17] = tested on: IGROV1 ovarian
[18] = tested on: K-562 leukemia
[19] = tested on: LOX IMVI melanoma
[20] = tested on: M14 melanoma
[21] = tested on: MALME-3M melanoma
[22] = tested on: MDA-MB-231 breast
[23] = tested on: MDA-MB-435
[24] = tested on: MOLT-4 leukemia
[25] = tested on: NCI-H226 lung
[26] = tested on: NCI-H23 lung
[27] = tested on: NCI-H460 lung
[28] = tested on: NCI/ADR-RES ovarian
[29] = tested on: OVCAR-3 ovarian
[30] = tested on: OVCAR-5 ovarian
[31] = tested on: PC-3 prostate
[32] = tested on: RPMI-8226 leukemia
[33] = tested on: RXF 393 renal
[34] = tested on: SF-268 CNS
[35] = tested on: SF-295 CNS
[36] = tested on: SF-539 CNS
[37] = tested on: SK-MEL-2 melanoma
[38] = tested on: SK-MEL-28 melanoma
[39] = tested on: SK-MEL-5 melanoma
[40] = tested on: SK-OV-3 ovarian
[41] = tested on: SN12C renal
[42] = tested on: SNB-19 CNS
[43] = tested on: SNB-75 CNS
[44] = tested on: SW-620 colon
[45] = tested on: TK-10 renal
[46] = tested on: U251 CNS
[47] = tested on: UACC-257 melanoma
[48] = tested on: UACC-62 melanoma
[49] = tested on: UO-31 renal

O=C1Nc2ccccc2/C1=C/c1cn(CC(O)Cn2cc(/C=C3\C(=O)Nc4ccccc43)c3ccccc32)c2ccccc12 (stereo not drawn)
GI50 [1]: 1670 nM
TGI [1]: 3210 nM
GI50 [2]: 2180 nM
TGI [2]: 4080 nM
GI50 [3]: 1510 nM
TGI [3]: 3210 nM
GI50 [4]: 1630 nM
TGI [4]: 3910 nM
GI50 [5]: 1620 nM
TGI [5]: 3390 nM
GI50 [6]: 2840 nM
TGI [6]: 13400 nM
GI50 [7]: 1550 nM
TGI [7]: 2950 nM
GI50 [8]: 1810 nM
TGI [8]: 3780 nM
GI50 [9]: 2280 nM
TGI [9]: 5210 nM
GI50 [10]: 1660 nM
TGI [10]: 4130 nM
GI50 [11]: 1770 nM
TGI [11]: 3710 nM
GI50 [12]: 2950 nM
TGI [12]: 10800 nM
GI50 [13]: 1410 nM
TGI [13]: 3060 nM
GI50 [14]: 1800 nM
TGI [14]: 4150 nM
GI50 [15]: 2430 nM
TGI [15]: 7850 nM
GI50 [16]: 1420 nM
TGI [16]: 3520 nM
GI50 [17]: 477 nM
TGI [17]: 1900 nM
GI50 [18]: 1190 nM
TGI [18]: 3560 nM
GI50 [19]: 326 nM
TGI [19]: 1310 nM
GI50 [20]: 1320 nM
TGI [20]: 2830 nM
GI50 [21]: 1510 nM
TGI [21]: 3260 nM
GI50 [22]: 1270 nM
TGI [22]: 2710 nM
GI50 [23]: 1810 nM
TGI [23]: 3460 nM
GI50 [24]: 2580 nM
TGI [24]: 7420 nM
GI50 [25]: 1680 nM
TGI [25]: 3550 nM
GI50 [26]: 1570 nM
TGI [26]: 3360 nM
GI50 [27]: 488 nM
TGI [27]: 1880 nM
GI50 [28]: 12100 nM
TGI [28]: 57100 nM
GI50 [29]: 1650 nM
TGI [29]: 3300 nM
GI50 [30]: 1740 nM
TGI [30]: 4530 nM
GI50 [31]: 1210 nM
TGI [31]: 2660 nM
GI50 [32]: 2100 nM
TGI [32]: 5410 nM
GI50 [33]: 2040 nM
TGI [33]: 3750 nM
GI50 [34]: 1750 nM
TGI [34]: 3920 nM
GI50 [35]: 1660 nM
TGI [35]: 3280 nM
GI50 [36]: 1550 nM
TGI [36]: 3110 nM
GI50 [37]: 1770 nM
TGI [37]: 3490 nM
GI50 [38]: 1770 nM
TGI [38]: 3500 nM
GI50 [39]: 1980 nM
TGI [39]: 3820 nM
GI50 [40]: 1650 nM
TGI [40]: 3680 nM
GI50 [41]: 1520 nM
TGI [41]: 3160 nM
GI50 [42]: 1210 nM
TGI [42]: 3820 nM
GI50 [43]: 1330 nM
TGI [43]: 2920 nM
GI50 [44]: 1340 nM
TGI [44]: 3480 nM
GI50 [45]: 2680 nM
TGI [45]: 5460 nM
GI50 [46]: 1520 nM
TGI [46]: 2920 nM
GI50 [47]: 2350 nM
TGI [47]: 4440 nM
GI50 [48]: 1640 nM
TGI [48]: 3160 nM
GI50 [49]: 1290 nM
TGI [49]: 2940 nM
